Values quoted from earlier work in patent publication US7132111B2, “Odorless formulation for treating mucosal discontinuities” (Epien Medical, Inc., priority 2003, dated 2006).

Tested on: aphthous ulcers
Settings: applied locally, three times a day

CN(C)[C@@H]1C(O)=C(C(N)=O)C(=O)[C@@]2(O)C(O)=C3C(=O)c4c(O)ccc(Cl)c4[C@@](C)(O)[C@H]3C[C@@H]12 [Aureomycin]
duration of analgesic effect: one half to two
duration of the ulcers with treatment (reduced from about 10 days): ~5 days
